Source: paper PMC9833666, “Designing and identifying β-hairpin peptide macrocycles with antibiotic potential” (Science Advances, 2023)
Where two headings read alike, the source gives them in different places. Bridge positions count the residues as written; N and C are the ends. Peptide text beside a SMILES is read from it.

System: Escherichia coli W3110
Format: cell-based
Conditions: for Ec W3110 MIC MH: E. coli W3110, MH medium; for Ec W3110 MIC RPMI: E. coli W3110, RPMI medium
Description: MICs were performed by a modifiedClinical and Laboratory Standards Institute) procedure. […] Separately, E. coli W3110 or A. baumannii AB5075 was grown overnight in 5 ml of standard MH at 37°C. Cells from these cultures were diluted to a concentration of 5 × 10^5 to 6 × 10^5 cells/ml in either standard MH, MHII, RPMI, or fetal bovine serum, and 90 μl was added to each well of the 96-well plate containing diluted peptide. Plates were wrapped twice in parafilm and incubated at 37°C for 18 to 24 hours. Wells were examined by eye against wells with no bacteria for signs of growth. MICs were reported as the minimum concentration with no observable growth. In cases where triplicate samples differed, the concentration supported by the median of the three replicates was reported.

Compound	Ec W3110 MIC MH	Ec W3110 MIC RPMI	W3110 MIC MH (E. coli W3110, standard Mueller-Hinton broth, 37°C, 18-24 h, median of n=3)	W3110 MIC RPMI (W3110)	W3110 MIC MH (W3110)
CC[C@H](C)[C@@H]1NC(=O)[C@H](CCCNC(=N)N)NC(=O)[C@H](C(C)C)NC(=O)[C@H](CCCNC(=N)N)NC(=O)[C@H](CCCNC(=N)N)NC(=O)[C@H](CCCNC(=N)N)NC(=O)[C@H](CCCNC(=N)N)NC(=O)[C@H](CC(N)=O)NC(=O)[C@H](CC(N)=O)NC(=O)[C@H](C(C)C)NC(=O)[C@H](CCCNC(=N)N)NC(=O)[C@H](C(C)C)NC(=O)[C@H]([C@@H](C)O)NC(=O)[C@H](C(C)C)NC(=O)[C@@H](N)CSSC[C@@H](C(=O)O)NC(=O)[C@H](C(C)C)NC(=O)[C@H](CCC(N)=O)NC(=O)[C@H](C(C)C)NC(=O)[C@H](CO)NC1=O [SySA-11] (H-CVTVRVNNRRRRVRISVQVC-OH; disulfide 1-20; N-terminus and C-terminus assumed)	64 µg/mL	16 µg/mL		16 µg/mL	64 µg/mL
CC(C)C[C@@H]1NC(=O)[C@H](CCCNC(=N)N)NC(=O)[C@H](CCCNC(=N)N)NC(=O)[C@H](CCCNC(=N)N)NC(=O)[C@H](CCCNC(=N)N)NC(=O)[C@H](CC(N)=O)NC(=O)[C@H](CC(N)=O)NC(=O)[C@H](CC(C)C)NC(=O)[C@H](CCCNC(=N)N)NC(=O)[C@H](C(C)C)NC(=O)[C@H](CCCNC(=N)N)NC(=O)[C@H](C(C)C)NC(=O)[C@@H](N)CSSC[C@@H](C(=O)O)NC(=O)[C@H](C(C)C)NC(=O)[C@H](CCC(=O)O)NC(=O)[C@H](CC(C)C)NC(=O)[C@H](CO)NC(=O)[C@H](C(C)C)NC(=O)[C@H](CCCCN)NC1=O [SySA-16] (H-CVRVRLNNRRRRLKVSLEVC-OH; disulfide 1-20; N-terminus and C-terminus assumed)	32 µg/mL	32 µg/mL		32 µg/mL	32 µg/mL
CC(C)C[C@@H]1NC(=O)CNC(=O)[C@H](CCCNC(=N)N)NC(=O)[C@H](CCCNC(=N)N)NC(=O)[C@H](CCCNC(=N)N)NC(=O)[C@H](CC(N)=O)NC(=O)[C@H](CC(N)=O)NC(=O)[C@H](CC(C)C)NC(=O)[C@H](CCCNC(=N)N)NC(=O)[C@H](C(C)C)NC(=O)[C@H](CCCNC(=N)N)NC(=O)[C@H](CC(C)C)NC(=O)[C@@H](N)CSSC[C@@H](C(=O)O)NC(=O)[C@H](C(C)C)NC(=O)[C@H](CCC(N)=O)NC(=O)[C@H](C(C)C)NC(=O)[C@H](CO)NC(=O)[C@H](C(C)C)NC(=O)[C@H](CCCCN)NC1=O [SySA-17] (H-CLRVRLNNRRRGLKVSVQVC-OH; disulfide 1-20; N-terminus and C-terminus assumed)	64 µg/mL	32 µg/mL		32 µg/mL	64 µg/mL
CC[C@H](C)[C@@H]1NC(=O)[C@H](CCCNC(=N)N)NC(=O)[C@H](CC(C)C)NC(=O)CNC(=O)CNC(=O)CNC(=O)[C@H](CCCNC(=N)N)NC(=O)[C@H](CC(N)=O)NC(=O)[C@H](CC(N)=O)NC(=O)[C@H](CC(C)C)NC(=O)[C@H](CCCNC(=N)N)NC(=O)[C@H](C(C)C)NC(=O)[C@H](CCCNC(=N)N)NC(=O)[C@H](C(C)C)NC(=O)[C@@H](N)CSSC[C@@H](C(=O)O)NC(=O)[C@H](C(C)C)NC(=O)[C@H](CCC(N)=O)NC(=O)[C@H](CC(C)C)NC(=O)[C@H]([C@@H](C)O)NC1=O [SySA-27] (H-CVRVRLNNRGGGLRITLQVC-OH; disulfide 1-20; N-terminus and C-terminus assumed)	256 µg/mL	64 µg/mL		64 µg/mL	256 µg/mL
CC[C@H](C)[C@@H]1NC(=O)[C@H](CC(N)=O)NC(=O)[C@H](C(C)C)NC(=O)[C@H](CCCCN)NC(=O)[C@H]([C@@H](C)CC)NC(=O)[C@H](CCCNC(=N)N)NC(=O)[C@@H](N)CSSC[C@@H](C(=O)O)NC(=O)[C@H](CCC(N)=O)NC(=O)[C@H](CC(C)C)NC(=O)[C@H](CCC(N)=O)NC(=O)[C@H](CC(C)C)NC(=O)[C@H](CCCCN)NC(=O)[C@H](C(C)C)NC(=O)[C@H](CCCNC(=N)N)NC(=O)[C@H](CCCNC(=N)N)NC(=O)[C@H](CCCNC(=N)N)NC(=O)CNC(=O)[C@H](CC(N)=O)NC(=O)[C@H](CC(N)=O)NC1=O [SySA-34] (H-CRIKVNINNGRRRVKLQLQC-OH; disulfide 1-20; N-terminus and C-terminus assumed)	128 µg/mL	32 µg/mL		32 µg/mL	128 µg/mL

Other lines, results leading:

Ec W3110 MIC MH	Ec W3110 MIC RPMI	W3110 MIC MH (E. coli W3110, standard Mueller-Hinton broth, 37°C, 18-24 h, median of n=3)	W3110 MIC RPMI (W3110)	W3110 MIC MH (W3110)	Compound
128 µg/mL	8 µg/mL	128 µg/mL	8 µg/mL		CC[C@H](C)[C@@H]1NC(=O)[C@H](CCCCN)NC(=O)[C@H](CC(C)C)NC(=O)CNC(=O)[C@H](CCCNC(=N)N)NC(=O)[C@H](CCCNC(=N)N)NC(=O)[C@H](CCCNC(=N)N)NC(=O)[C@H](CC(N)=O)NC(=O)[C@H](CC(N)=O)NC(=O)[C@H](CC(C)C)NC(=O)[C@H](CCCNC(=N)N)NC(=O)[C@H](C(C)C)NC(=O)[C@H](CCCNC(=N)N)NC(=O)[C@H](C(C)C)NC(=O)[C@@H](N)CSSC[C@@H](C(=O)O)NC(=O)[C@H](C(C)C)NC(=O)[C@H](CCC(N)=O)NC(=O)[C@H](CC(C)C)NC(=O)[C@H](CO)NC1=O [SySA-9] (H-CVRVRLNNRRRGLKISLQVC-OH; disulfide 1-20; N-terminus and C-terminus assumed)
64 µg/mL	8 µg/mL		8 µg/mL	64 µg/mL	CC(C)C[C@@H]1NC(=O)[C@H](CCCNC(=N)N)NC(=O)[C@H](C(C)C)NC(=O)[C@H](CCCNC(=N)N)NC(=O)[C@H](CC(C)C)NC(=O)[C@@H](N)CSSC[C@@H](C(=O)O)NC(=O)[C@H](C(C)C)NC(=O)[C@H](CCC(N)=O)NC(=O)[C@H](C(C)C)NC(=O)[C@H](CO)NC(=O)[C@H](C(C)C)NC(=O)[C@H](CCCCN)NC(=O)[C@H](C(C)C)NC(=O)CNC(=O)[C@H](CCCNC(=N)N)NC(=O)[C@H](CCCNC(=N)N)NC(=O)[C@H](CCCNC(=N)N)NC(=O)[C@H](CC(N)=O)NC(=O)[C@H](CC(N)=O)NC1=O [SySA-25] (H-CLRVRLNNRRRGVKVSVQVC-OH; disulfide 1-20; N-terminus and C-terminus assumed)
64 µg/mL	8 µg/mL		8 µg/mL	64 µg/mL	CC[C@H](C)[C@@H]1NC(=O)[C@H](CCCNC(=N)N)NC(=O)[C@H](CC(C)C)NC(=O)[C@@H](N)CSSC[C@@H](C(=O)O)NC(=O)[C@H](C(C)C)NC(=O)[C@H](CCC(N)=O)NC(=O)[C@H](CC(C)C)NC(=O)[C@H](CO)NC(=O)[C@H](C(C)C)NC(=O)[C@H](CCCCN)NC(=O)[C@H](CC(C)C)NC(=O)CNC(=O)[C@H](CCCNC(=N)N)NC(=O)[C@H](CCCNC(=N)N)NC(=O)[C@H](CCCNC(=N)N)NC(=O)[C@H](CC(N)=O)NC(=O)[C@H](CC(N)=O)NC(=O)[C@H](CC(C)C)NC(=O)[C@H](CCCNC(=N)N)NC1=O [SySA-30] (H-CLRIRLNNRRRGLKVSLQVC-OH; disulfide 1-20; N-terminus and C-terminus assumed)
